The values that follow come from ChEMBL document CHEMBL1147242, “Briarlides, briarane diterpenes from a gorgonian Briareum sp” (J Nat Prod, 2003).

By CC50 is commonly meant the concentration at which the toxic effect on the cells reaches its halfway point.

In brackets after ≈: the same amount, converted by molar mass.

Data set [1] is described as follows: Cytotoxicity against african green monkey Vero cells. The data set is classed as cell-based. The note with it: chlorocebus sabaeus.
A short description of data set [2]: Cytotoxicity against MDCK cells. The data set is classed as cell-based, Canis lupus familiaris. To be noted: dog.

As for `CC(=O)O[C@@H]1[C@@H](OC(C)=O)/C(C)=C\[C@@H]2OC(=O)[C@]3(C)O[C@]23[C@H](OC(C)=O)[C@H]2[C@](C)(O)[C@H](OC(C)=O)C=C[C@]2(C)[C@H]1OC(C)=O` [BRIARLIDE A], the values for the CC50 in data set [1] and in data set [2] were 2.07 µg/mL (≈ 3.32 µM) and 4.74 µg/mL (≈ 7.61 µM), respectively.
Consider `CC(=O)O[C@@H]1[C@H]2[C@](C)(O)[C@H](OC(C)=O)C=C[C@]2(C)[C@@H](OC(C)=O)[C@H](OC(C)=O)C/C(C)=C\[C@@H]2OC(=O)[C@]3(C)O[C@@]213` [BRIARLIDE G], for which the half-maximal cytotoxic concentration (CC50) in data set [1] stood at 22.2 µg/mL (≈ 39.3 µM); in data set [2], 67.1 µg/mL (≈ 119 µM).
For `CCCCCC(=O)O[C@H]1/C(C)=C\[C@@H]2OC(=O)[C@]3(C)O[C@]23[C@H](OC(C)=O)[C@H]2[C@](C)(O)[C@H](OC(C)=O)C=C[C@]2(C)[C@@H](OC(C)=O)[C@@H]1O` [BRIARLIDE E], the CC50 in data set [1] was found to be 4.24 µg/mL (≈ 6.66 µM); in data set [2], 4.91 µg/mL (≈ 7.71 µM).
On to `CCCCCCCC(=O)O[C@H]1/C(C)=C\[C@@H]2OC(=O)[C@]3(C)O[C@]23[C@H](OC(C)=O)[C@H]2[C@](C)(O)[C@H](OC(C)=O)C=C[C@]2(C)[C@@H](OC(C)=O)[C@@H]1O` [BRIARLIDE D], for which the figures for the CC50 in data set [1] and in data set [2] were 2.26 µg/mL (≈ 3.4 µM) and 2.49 µg/mL (≈ 3.75 µM), respectively.
As for `CCCCCCCC(=O)O[C@@H]1[C@@H](O)/C(C)=C\[C@@H]2OC(=O)[C@]3(C)O[C@]23[C@H](OC(C)=O)[C@H]2[C@](C)(O)[C@H](OC(C)=O)C=C[C@]2(C)[C@H]1OC(C)=O` [BRIARLIDE F], the values for the CC50 in data set [1] and in data set [2] were 4.26 µg/mL (≈ 6.41 µM) and 3.49 µg/mL (≈ 5.25 µM), respectively.
With `CC(=O)O[C@@H]1[C@H]2[C@](C)(O)[C@H](O)C=C[C@]2(C)[C@@H](O)[C@H](OC(C)=O)C/C(C)=C\[C@@H]2OC(=O)[C@]3(C)O[C@@]213` [BRIARLIDE H], the CC50 in data set [1] and in data set [2] was more than 100 µg/mL throughout.
Regarding `CC(=O)O[C@@H]1[C@H]2[C@](C)(O)[C@H](OC(C)=O)C=C[C@]2(C)[C@@H](O)[C@H](O)[C@@H](OC(C)=O)/C(C)=C\[C@@H]2OC(=O)[C@]3(C)O[C@@]213` [BRIARLIDE C], the CC50 in data set [1] is 62.1 µg/mL (≈ 115 µM); in data set [2], 38.6 µg/mL (≈ 71.7 µM).
As to `CC(=O)O[C@@H]1[C@@H](OC(C)=O)/C(C)=C\[C@@H]2OC(=O)[C@]3(C)O[C@]23[C@H](OC(C)=O)[C@H]2[C@](C)(O)[C@H](O)C=C[C@]2(C)[C@H]1OC(C)=O` [VIOLIDE B], the CC50 in data set [1] was determined as 9.8 µg/mL (≈ 16.9 µM); in data set [2], 28.8 µg/mL (≈ 49.6 µM).
`CC(=O)O[C@@H]1[C@H]2[C@](C)(O)[C@H](OC(C)=O)C=C[C@]2(C)[C@@H](OC(C)=O)[C@H](O)[C@@H](OC(C)=O)/C(C)=C\[C@@H]2OC(=O)[C@]3(C)O[C@@]213` [BRIARLIDE B]: the 50% cytotoxic concentration (CC50) in data set [1] is 18.9 µg/mL (≈ 32.6 µM); in data set [2], 15.4 µg/mL (≈ 26.5 µM).
